From paper PMC12672436 (Frontiers in Pharmacology, 2025)
Where two headings read alike, the source gives them in different places.

Experiments:
[1] = target: T1, human OCT3 (Homo sapiens, UniProt O75751); set-up: method as in Angenoorth et al., 2021; conditions: ref Angenoorth et al., 2021; cited from earlier work
T1 construct: expressed in transfected cells
T1 sequence (O75751 1-556): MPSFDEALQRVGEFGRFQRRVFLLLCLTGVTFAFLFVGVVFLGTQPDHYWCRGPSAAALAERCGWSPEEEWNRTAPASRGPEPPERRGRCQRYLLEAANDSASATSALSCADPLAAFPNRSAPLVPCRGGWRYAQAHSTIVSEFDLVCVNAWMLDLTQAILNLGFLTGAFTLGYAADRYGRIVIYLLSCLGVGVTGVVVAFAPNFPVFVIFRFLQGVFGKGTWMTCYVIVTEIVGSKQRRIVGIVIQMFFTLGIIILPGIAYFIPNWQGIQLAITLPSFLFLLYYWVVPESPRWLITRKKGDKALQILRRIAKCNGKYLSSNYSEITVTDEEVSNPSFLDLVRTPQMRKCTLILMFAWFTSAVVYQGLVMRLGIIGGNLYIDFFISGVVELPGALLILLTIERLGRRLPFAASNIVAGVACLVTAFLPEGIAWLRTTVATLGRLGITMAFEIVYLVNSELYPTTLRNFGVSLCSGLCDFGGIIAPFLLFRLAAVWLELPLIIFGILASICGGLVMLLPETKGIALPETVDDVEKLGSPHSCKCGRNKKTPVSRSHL

[2] = target: T2, human OCT2 (Homo sapiens, UniProt O15244); set-up: expressed in transfected cells; method as in Angenoorth et al., 2021; conditions: ref Angenoorth et al., 2021; cited from earlier work
T2 sequence (O15244 1-555): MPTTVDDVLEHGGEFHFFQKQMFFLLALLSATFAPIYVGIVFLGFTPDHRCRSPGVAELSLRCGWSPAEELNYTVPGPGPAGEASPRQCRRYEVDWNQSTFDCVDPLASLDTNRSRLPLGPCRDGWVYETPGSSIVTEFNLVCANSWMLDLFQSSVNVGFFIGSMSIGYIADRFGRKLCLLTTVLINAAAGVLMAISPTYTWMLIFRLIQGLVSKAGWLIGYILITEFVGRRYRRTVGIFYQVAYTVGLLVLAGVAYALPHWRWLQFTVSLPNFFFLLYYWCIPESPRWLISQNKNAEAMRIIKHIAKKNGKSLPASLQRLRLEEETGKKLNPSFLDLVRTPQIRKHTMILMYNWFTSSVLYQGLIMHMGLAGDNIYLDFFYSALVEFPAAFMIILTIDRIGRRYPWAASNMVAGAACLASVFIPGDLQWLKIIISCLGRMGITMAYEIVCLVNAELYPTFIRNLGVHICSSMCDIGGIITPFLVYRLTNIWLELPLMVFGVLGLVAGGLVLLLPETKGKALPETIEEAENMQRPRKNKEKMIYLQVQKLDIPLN

[3] = target: T3, human OCT1 (Homo sapiens, UniProt O15245); assay: cell-based
T3 sequence (O15245 1-554): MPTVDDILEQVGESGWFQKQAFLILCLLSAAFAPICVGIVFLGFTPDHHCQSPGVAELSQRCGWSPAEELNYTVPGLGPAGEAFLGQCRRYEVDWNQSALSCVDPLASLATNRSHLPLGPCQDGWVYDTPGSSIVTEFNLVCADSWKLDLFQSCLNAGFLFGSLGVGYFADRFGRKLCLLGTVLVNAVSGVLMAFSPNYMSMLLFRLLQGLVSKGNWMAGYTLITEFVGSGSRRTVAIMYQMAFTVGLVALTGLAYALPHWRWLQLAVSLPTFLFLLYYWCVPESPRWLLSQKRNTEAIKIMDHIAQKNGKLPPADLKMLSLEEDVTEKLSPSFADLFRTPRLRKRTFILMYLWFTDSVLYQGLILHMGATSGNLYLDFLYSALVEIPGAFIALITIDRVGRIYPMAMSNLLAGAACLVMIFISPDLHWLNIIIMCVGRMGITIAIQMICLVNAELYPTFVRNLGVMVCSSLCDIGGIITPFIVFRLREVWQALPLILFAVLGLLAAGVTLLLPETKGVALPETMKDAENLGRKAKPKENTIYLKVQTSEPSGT
Method: (§1) Cells were cultured in Dulbecco’s modified Eagle’s medium (DMEM) supplemented with 10% fetal bovine serum and 250 μg/mL geneticin to maintain selection pressure.
(§2) HEK293 cells heterologously expressing the respective transporters were seeded onto poly-D-lysine (PDL)-coated 96-well plates at a density of ∼36,000 cells per well, 1 day before experiments. For the experiment, medium was replaced with 200 µL Krebs HEPES buffer (KHB; 120 mM NaCl, 3 mM KCl, 2 mM CaCl2·2H2O, 2 mM MgCl2·6H2O, 20 mM D-glucose, pH 7.3). Test compounds were dissolved in Milli-Q water or dimethyl sulfoxide (DMSO) at 10–100 mM stock concentrations. Cells were preincubated for 5 min with the compound of interest (diluted in KHB to the indicated concentrations). The preincubation solution was then replaced with 50 µL/well of diluted compound together with tritiated substrate (DAT, OCT1, OCT2, OCT3: 0.05 μM [^3H]MPP^+; NET: 0.02 μM [^3H]MPP^+; SERT: 0.1 μM [^3H]5-HT) for 1 min (SERT) or 3 min (DAT, NET, OCT1– OCT3). After the incubation, uptake was terminated by rapidly washing cell with 200 μL KHB, followed by addition of 200 μL Ultima Gold™ XR scintillation cocktail (PerkinElmer, MA, United States) to each well. […] Uptake in the absence of inhibitor was defined as 100%, while uptake in presence of a reference inhibitor (hDAT, hNET: 50 μM GBR12909; hSERT: 3 μM paroxetine; OCT1–OCT3: 100 µM D22) was defined as nonspecific uptake (0%) and subtracted from all values.
(§3) Uptake is expressed as a percentage of control (uptake in the absence of test compound). Data represent mean ± SD of ≥3 independent experiments.

[4] = target: T2, human OCT2; assay: cell-based
Method: as §1, §2, §3

[5] = target: T3, human OCT1; set-up: expressed in transfected cells; method as in Angenoorth et al., 2021; conditions: ref Angenoorth et al., 2021; cited from earlier work
[6] = target: T1, human OCT3; assay: Uptake inhibition assay, OCT3; format: cell-based; conditions: HEK293 cells expressing human OCT3, 0.05 µM [3H]MPP+
Method: as §1, §2, §3

[7] = target: T4, human NET (Homo sapiens, UniProt P23975); assay: cell-based; format: cell-based
T4 construct: expressed in transfected cells

[8] = target: T5, human DAT (Homo sapiens, UniProt Q01959); assay: Uptake inhibition assay, DAT; format: cell-based; conditions: HEK293 cells expressing human DAT, 0.05 µM [3H]MPP+; for IC50: given as a range
T5 construct: expressed in transfected cells

[9] = HEK293 cells expressing human NET, 0.02 µM [3H]MPP+
[10] = HEK293 cells expressing human NET, 0.02 µM [3H]MPP+, given as a range, read-out: IC50 of NET uptake inhibition

T4 sequence (P23975 whole entry): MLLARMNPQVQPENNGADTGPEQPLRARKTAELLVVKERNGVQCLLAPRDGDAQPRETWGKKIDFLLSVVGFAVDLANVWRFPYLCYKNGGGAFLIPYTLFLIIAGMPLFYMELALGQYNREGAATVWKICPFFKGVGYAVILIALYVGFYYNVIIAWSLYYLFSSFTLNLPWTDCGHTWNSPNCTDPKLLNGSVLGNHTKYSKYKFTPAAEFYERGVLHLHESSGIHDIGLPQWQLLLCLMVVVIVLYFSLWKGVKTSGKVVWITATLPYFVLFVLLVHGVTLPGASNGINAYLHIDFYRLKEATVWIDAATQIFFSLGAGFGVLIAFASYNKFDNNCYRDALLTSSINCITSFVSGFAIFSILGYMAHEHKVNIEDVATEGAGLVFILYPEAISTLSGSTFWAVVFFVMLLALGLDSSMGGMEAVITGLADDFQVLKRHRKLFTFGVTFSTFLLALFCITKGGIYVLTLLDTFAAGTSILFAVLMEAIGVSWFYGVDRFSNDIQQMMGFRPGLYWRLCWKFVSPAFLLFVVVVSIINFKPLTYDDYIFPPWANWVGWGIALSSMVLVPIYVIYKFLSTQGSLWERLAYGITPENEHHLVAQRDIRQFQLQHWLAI
T5 sequence (Q01959 whole entry): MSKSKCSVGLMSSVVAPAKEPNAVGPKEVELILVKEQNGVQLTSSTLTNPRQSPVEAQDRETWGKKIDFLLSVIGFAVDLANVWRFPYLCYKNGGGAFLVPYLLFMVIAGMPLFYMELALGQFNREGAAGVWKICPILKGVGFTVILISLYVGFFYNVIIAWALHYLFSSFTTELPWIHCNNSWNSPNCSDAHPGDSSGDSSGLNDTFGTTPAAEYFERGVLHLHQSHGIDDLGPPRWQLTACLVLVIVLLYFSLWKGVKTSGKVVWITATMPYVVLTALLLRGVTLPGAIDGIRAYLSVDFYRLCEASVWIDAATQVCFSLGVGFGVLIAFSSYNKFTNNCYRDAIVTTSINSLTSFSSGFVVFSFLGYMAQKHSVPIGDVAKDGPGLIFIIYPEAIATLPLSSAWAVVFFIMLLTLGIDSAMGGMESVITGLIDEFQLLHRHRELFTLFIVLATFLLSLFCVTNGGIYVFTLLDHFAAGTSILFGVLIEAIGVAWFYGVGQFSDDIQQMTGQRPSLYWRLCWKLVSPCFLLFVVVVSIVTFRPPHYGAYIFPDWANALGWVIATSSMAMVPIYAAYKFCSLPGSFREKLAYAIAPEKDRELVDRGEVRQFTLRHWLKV

For `COC(=O)[C@H]1[C@@H](OC(=O)c2ccccc2)C[C@@H]2CC[C@H]1N2C` [cocaine], the “Inhibition of OCT3 (in words), previously reported” value [1] is listed as “but not OCT3”, the “Inhibition of OCT2 (in words), previously reported” value [2] is listed as “inhibits OCT1 and OCT2” and the IC50 [3] is listed as 19 to 57 µM. For the same compound, the IC50 [4] was 15 to 42 µM, the “Inhibition of OCT1 (in words), previously reported” value [5] was “inhibits OCT1 and OCT2” and the “Inhibition of OCT3-mediated transport (in words)” value [6] was “none of the compounds—cocaine, procaine, or lidocaine—substantially inhibited OCT3-mediated transport except at near-millimolar concentrations”.
In the case of `CCN(CC)CC(=O)Nc1c(C)cccc1C` [lidocaine], the “Inhibitory activity at NET (in words)” value [7, 9] is reported as “no inhibitory potency” and the “Inhibitory activity at DAT (in words)” value [8] is reported as “no inhibitory potency”.
`c1ccc([C@H]2CN3CCSC3=N2)cc1` [levamisole] showed an IC50 [7] of 60 to 106 µM and an IC50 [8] of 81 to 316 µM.
With `CCOC(=O)c1ccc(N)cc1` [benzocaine, Ethyl 4-Aminobenzoate] the “Inhibition of [3H]MPP+ transport via OCT1 (in words)” value ([3]; HEK293 cells expressing human OCT1, 0.05 µM [3H]MPP+) was “failed to inhibit”, the “Inhibition of [3H]MPP+ transport via OCT2 (in words)” value ([4]; HEK293 cells expressing human OCT2, 0.05 µM [3H]MPP+) was “failed to inhibit” and the IC50 [7, 10] was 215 to 444 µM. For the same compound, the IC50 [8] was 17 to 27 µM and the “Inhibition of OCT3-mediated transport (in words)” value [6] was “failed to inhibit”.
With `CCOc1ccc(NC(C)=O)cc1` [phenacetin] the “Inhibitory activity at NET (in words)” value [7, 9] was “no measurable inhibitory activity” and the “Inhibitory activity at DAT (in words)” value [8] was “no measurable inhibitory activity”.
For `CCN(CC)CCOC(=O)c1ccc(N)cc1` [procaine], the IC50 [3] was 5 to 9 µM, the IC50 [4] was 10 to 24 µM and the IC50 [7, 10] was 88 to 146 µM. For the same compound, the IC50 [8] was 15 to 29 µM and the “Inhibition of OCT3-mediated transport (in words)” value [6] was “none of the compounds—cocaine, procaine, or lidocaine—substantially inhibited OCT3-mediated transport except at near-millimolar concentrations”.
In the case of `CC(=O)Nc1ccc(O)cc1` [paracetamol], the “Inhibitory activity at NET (in words)” value [7, 9] is reported as “no measurable inhibitory activity” and the “Inhibitory activity at DAT (in words)” value [8] is reported as “no measurable inhibitory activity”.
